Assay results from patent US20090074766A1, “Methods of inhibiting HIV-2 infection” (priority 2007, published 2009).

Tests used:
[1] = test system: reporter viruses pseudotyped with HIV-1JR-FL envelope; type: cell-based; parameters: CI90: unit not given beside the values; details: for CI50 / CI90: labelled 1st inhibitor with 2nd inhibitor PRO 140, envelope JRFL, equimolar (1:10 PRO 140 to zidovudine or nevirapine); for inhibition of HIV-1 pseudovirus entry: result in words, data not shown
Excerpt: HIV-1 pseudoparticles (HIV-1pp) are generated in 293T cells by transient coexpression of an HIV-1-based NL4/3luc+env− plasmid and a construct encoding HIV-1JRFL Env. The NL4/3luc+env− plasmid was obtained from the NIH AIDS Research and Reference Reagent Program (Cat. No. 3418), and the HIV-1JRFL Env was inserted into the pcDNA3.1 vector (Invitrogen). Briefly, 293T cells are calcium phosphate transfected with a 1:1 ratio of NL4/3luc+env− reporter vector and Env expression vector in Hepes buffer (Profection Mammalian Transfection Kit, Promega). After 16 h the transfection medium is aspirated and fresh cell culture medium (DMEM with 10% FBS, glutamine and antibiotics) is added and the incubation is continued at 37° C. for an additional 24-32 h. Cell culture supernatants are collected 48 h post-transfection and centrifuged at 1,400 rpm for 10 min to pellet cell debris. The viral supernatant is brought to a final concentration of 5% sucrose and stored aliquoted at −80° C.
U87-CD4-CCR5 cells were obtained from the NIH AIDS Research and Reference Program (Cat. No. 4035). These cells are maintained in culture medium (DMEM with 10% FBS, antibiotics and glutamine) containing 0.3 mg/ml G418 and 0.5 mg/ml puromycin. Cells are grown in T175-cm^2 flasks at 37° C. and diluted 1:5 every 3-4 days. For assay plate preparation, cells are trypsinized and seeded into wells of 96-well tissue-culture treated flat bottom opaque polystyrene plates (Perkin Elmer, Boston, Mass.) at a density of 3×10^3 cells/well. Plates are incubated for no more than 4 h at 37° C. in a humidified 5% CO2 incubator prior to their use in the HIV-1 pp susceptibility assay.
Fifty μl of diluted compound at 4× the desired final concentration are added per well. For compounds solubilized in DMSO, the 4× stock will contain 2% DMSO (such that the final DMSO concentration in the assay is always 0.5% for small molecules). Control wells receiving no compound are included on each plate. In addition, an AZT inhibition control is included in each assay. Compounds are tested individually and at a fixed mass or molar ratio over a broad range of concentrations.
A vial of frozen, aliquoted HIV-1pp is thawed in a 37° C. waterbath and then placed on wet ice. Virus is diluted in cold cell culture medium as necessary to achieve the desired final virus concentration in the HIV-1pp assay (about 10,000 relative light units (rlu) per well). 50 μl of diluted virus are added per well, bringing the final well volume to 200 μl. A no-virus control (minimum or background luminescence) and a no-compound control (maximum luminescence) are included on each plate. The plates are incubated for 72 h at 37° C. in a humidified 5% CO2 incubator followed by processing for luciferase signal (see below).
Assay medium is aspirated and 200 μl of PBS are added to each well. […] Assay plates are then frozen for at least 2 h at −80° C. followed by thawing at room temperature and vigorous mixing with an electronic pipettor. 25 μl from each well are transferred to an opaque 96-well plate (Costar #3922). Four replicates are pooled into the same well on the opaque plate. 100 μl of freshly thawed and reconstituted luciferase substrate (Luciferase Assay System, Promega—Cat. No. E1501) are added to each well of the plate with the electronic pipettor, and luminescence is detected immediately on a Dynex MLX plate reader set to medium gain.
The percent inhibition is derived as follows: [1−(luciferase activity in the presence of drug/luciferase activity in the absence of drug)]×100. IC50 values are determined by fitting the inhibition data with a non-linear, four-parameter, variable slope equation (GraphPad Prism, ver. 4.02; GraphPad Software, San Diego, Calif.). Upper and lower inhibition values are constrained to 100% and 0%, respectively for curve fitting. […]

[2] = test system: reporter viruses pseudotyped with HIV-1SF162 envelope; type: cell-based; parameters: CI90: unit not given beside the values; details: labelled 1st inhibitor with 2nd inhibitor PRO 140; envelope SF162; equimolar (1:10 PRO 140 to zidovudine or nevirapine)
Excerpt: A self-inactivating (SIN) vector was derived from the pNL4-3ΔEnv-luciferase vector (Dragic et al. 1996) by deleting 507 basepairs in the U3 region of the 3′ long terminal repeat (LTR) so as to remove the TATA box and transcription factor binding sites. The human cytomegalovirus promoter was inserted upstream of the luciferase (luc) gene to enable expression of luciferase following integration.
Reporter viruses pseudotyped with HIV-1JR-FL or HIV-1SF162 envelopes were generated by cotransfection of 293T cells with the SIN vector and the appropriate pcDNA env-expressing vector as previously described (Dragic et al. 1996). […] Cultures were incubated for 72 h at 37° C. in DMEM containing 10% fetal bovine serum, 1 mg/mL puromycin, 0.3 mg/mL geneticin, antibiotics, and 0.5% DMSO. Luciferase activity (relative light units or RLU) was measured using BrightGlo reagent (Promega, Madison, Wis.) according to the manufacturer's instructions. Percent inhibition was calculated as: (1−RLU in the presence of inhibitor/RLU in the absence of inhibitor)×100.
Experimental design and data analysis were based on the combination index (CI) method (Chou et al. 1991; Chou et al. 1984). Compounds were tested individually and in combination at a fixed molar ratio over a range of serial dilutions. […] The mutually exclusive CI formula was used for combinations of CCR5 inhibitors, while the mutually non-exclusive formula was utilized for combinations of inhibitors to distinct targets (Chou et al. 1991). Each test was conducted 4-12 times. Synergy, additivity and antagonism are indicated by CI<1, CI=1 and CI>1, respectively.

[3] = test system: HIV-1JR-FL envelope-mediated membrane fusion (HeLa-EnvJRFL and CEM NKR-CCR5 cells); experiment: cell-based; details: 1st inhibitor alone (Table 13)
Procedure: (§1) The HIV-1 RET assay has been described in detail previously (Litwin et al., 1996). Briefly, fluorescein octadecyl ester (F18; Molecular Probes, Eugene, Oreg.; 5 mg/ml in ethanol), was diluted 1:800 in DMEM labeling medium (DMEM; Invitrogen, Carlsbad, Calif.) with 10% fetal bovine serum (FBS; HyClone, Logan, Utah) and adjusted to an A506 of 0.34±10%. Octadecyl rhodamine B chloride (R18; Molecular Probes; 10 mg/ml in ethanol) was diluted 1:2050 in labeling medium and adjusted to an A565 of 0.52±10%. Both dyes were further diluted 2-fold by addition to cells in T75-cm^2 flasks. HeLa-EnvJRFL and CEM NKR-CCR5 cells were incubated overnight in F18- and R18-containing culture medium, respectively. The following day, medium from HeLa-EnvJRFL cells was removed and 10 ml of 0.5 mM EDTA was added and incubated at 37° C. for 5 min. EDTA was removed and the flask was returned to the incubator for another 5 min followed by striking of the flask to dislodge cells. […] Suspension CEM NKR-CCR5 cells were added directly to a separate 50-ml conical centrifuge tube. Both cell lines were centrifuged at 300×g for 5 min. The supernatant was discarded and cells were resuspended in 10 ml of PBS-/15% FBS. The centrifugation/wash step was repeated twice, after which the cells were counted and concentrations adjusted to 1.5×10^6 cells/ml. Ten μl of each cell type (15,000 cells) were seeded into wells of a 384-well plate. Inhibitor compounds were added immediately thereafter to bring the final well volume to 40 μl, and the plates were incubated for 4 h at 37° C. Compounds were tested individually and in combination at a fixed molar ratio or mass ratio over a range of serial dilutions. The plates were then read on a fluorescence plate reader (Victor^2, Perkin Elmer, Boston, Mass.) using the excitation/emission filter combinations shown in Table 6.
(§2) The “% RET” was calculated according to the following formula after subtraction of background (blank) readings: […]
(§3) The “% Inhibition” was calculated according to the following formula: […]
(§4) Fifty percent inhibition (IC50) values were determined by fitting the inhibition data with a non-linear, four-parameter, variable slope equation (GraphPad Prism, 4.02; GraphPad Software, San Diego, Calif.). Upper and lower inhibition values were constrained to 100% and 0%, respectively for curve fitting.
(§5) For testing, small molecule compounds were solubilized in dimethylsulfoxide (DMSO) to 10 mM and then diluted in DMSO to 200× the final concentration to be utilized in the antiviral assay. Serial dilutions of small molecules were conducted in DMSO. Subsequent dilutions were conducted in medium to achieve a final DMSO concentration in the assay of 0.5%. Peptides and mAbs were diluted in PBS in the absence of DMSO.
(§6) HeLa cells were engineered to express HIV-1 gp120/gp41 from the macrophage-tropic primary isolate JRFL as described (HeLa-EnvJRFL; Litwin et al., 1996). Briefly, the HIV-1LAI Env gene was excised from the plasmid pMA243 (Dragic et al., 1992) and the HIV-1JRFL Env gene was inserted. The HIV-1JRFL Env gene was amplified from the plasmid pUCFL112-1 (Koyanagi et al., 1987). The resulting plasmid, designated JR-FL-pMA243, was sequenced by standard methods and transfected into HeLa cells using lipofectin (Gibco BRL/Invitrogen, Carlsbad, Calif.). HeLa-EnvJRFL transfectants were selected in methotrexate (Sigma, St. Louis, Mo.) and cloned twice by limiting dilution. The transduced human T cell leukemia line CEM NKR-CCR5 cells were obtained from the NIH AIDS Research and Reference Program (Cat. No. 458).
(§7) The HIV-1 RET assay has been described in detail previously (Litwin et al., 1996). Briefly, fluorescein octadecyl ester (F18; Molecular Probes, Eugene, Oreg.; 5 mg/ml in ethanol), was diluted 1:800 in DMEM labeling medium (DMEM; Invitrogen, Carlsbad, Calif.) with 10% fetal bovine serum (FBS; HyClone, Logan, Utah) and adjusted to an A506 of 0.34±10%.

[4] = single administration of TAK-652 solution (Baba et al., 2005); cited from earlier work
HIV-1 = details: treatment period of 10-14 days, dose-dependent; cited from earlier work
[5] = target: HIV-1JR-FL envelope-mediated membrane fusion (HeLa-EnvJRFL and CEM NKR-CCR5 cells) (Homo sapiens, UniProt P51681); experiment: cell-based; details: 2D7 in combination with the labelled inhibitor, 1:1 molar ratio
Chain of HIV-1JR-FL envelope-mediated membrane fusion (HeLa-EnvJRFL and CEM NKR-CCR5 cells) (Homo sapiens, UniProt P51681) (P51681 whole entry, the tested form may be a part): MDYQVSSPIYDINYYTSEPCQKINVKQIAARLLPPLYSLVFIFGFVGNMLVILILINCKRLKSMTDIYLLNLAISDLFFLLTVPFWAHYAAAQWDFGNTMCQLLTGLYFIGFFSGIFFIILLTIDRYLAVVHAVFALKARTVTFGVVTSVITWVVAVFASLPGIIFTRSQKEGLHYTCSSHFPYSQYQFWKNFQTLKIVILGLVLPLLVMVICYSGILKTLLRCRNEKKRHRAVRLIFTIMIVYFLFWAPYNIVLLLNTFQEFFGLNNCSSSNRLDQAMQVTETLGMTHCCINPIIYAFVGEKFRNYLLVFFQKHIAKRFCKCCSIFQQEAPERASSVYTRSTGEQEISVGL
Procedure: as §1, §2, §3, §4, §5, §6, §7

[6] = in vivo, cited from earlier work

Q: Which results are given for `Cc1cn([C@H]2C[C@H](N=[N+]=[N-])[C@@H](CO)O2)c(=O)[nH]c1=O` [zidovudine]?
A: CI50 [1]: 1.1 ± 0.38; CI90 [1]: 0.85 ± 0.26; CI50 [2]: 0.99 ± 0.27; CI90 [2]: 1.0 ± 0.38

Q: With enfuvirtide as the compound, how does the IC50 [3] read?
A: Its IC50 is 8.6 nM.

Q: And the IC90 [3]?
A: The IC90 was 66 nM.

Q: Which safety and tolerability [4] does the source give for `CCCCOCCOc1ccc(-c2ccc3c(c2)/C=C(/C(=O)Nc2ccc([S@@+]([O-])Cc4cncn4CCC)cc2)CCCN3CC(C)C)cc1.CS(=O)(=O)O` [TAK-652] here?
A: The safety and tolerability was “safe and well tolerated”.

Q: For `CCCCN1C(=O)[C@@H]([C@H](O)C2CCCCC2)NC(=O)C12CCN(Cc1ccc(Oc3ccc(C(=O)O)cc3)cc1)CC2` [GW873140], which “mean reductions in HIV-1 RNA levels” value (HIV-1) is on record?
A: The value was ~1 log10.

Q: For `Cc1ccnc2c1NC(=O)c1cccnc1N2C1CC1` [nevirapine], which CI50 [1] is on record?
A: Its CI50 is 1.2 ± 0.38.

Q: What about the CI90 [1] of the same compound?
A: The CI90 was 0.73 ± 0.28.

Q: What about the CI50 [2] of the same compound?
A: The CI50 was 1.2 ± 0.34.

Q: And the CI90 [2]?
A: The CI90 was 0.63 ± 0.19.

Q: For “RANTES: CC-chemokine, natural peptide ligand of CCR5, purchased from R&D Systems”, which “Mean Dose Reduction (2D7)” value [5] is on record?
A: Its value is 1.94 ± 0.08.

Q: And the “Mean Dose Reduction (Cpd in combination)” value [5]?
A: The value was 10.18 ± 1.86.

Q: And the “inhibition of HIV-1 pseudovirus entry” value [1]?
A: The value was “Neither TAK-779 nor RANTES mediated consistent, high-level inhibition”.

Q: With `CCO/N=C(\c1ccc(Br)cc1)C1CCN(C2(C)CCN(C(=O)c3c(C)cc[n+]([O-])c3C)CC2)CC1` [SCH-C] as the compound, how does the “mean reductions in HIV-1 RNA levels” value (HIV-1) read?
A: Its value is ~1 log10.

Q: What does the source list for TAK-779?
A: oral bioavailability ([6]; po): poor oral bioavailability; local tolerability [6]: local injection site irritation; inhibition of HIV-1 pseudovirus entry [1]: Neither TAK-779 nor RANTES mediated consistent, high-level inhibition
